Data on 25 compounds can be found in US10660877B2 (BRISTOL-MYERS SQUIBB COMPANY, priority 2016, dated 2020).

Each structure is given as a SMILES string. Read-outs that look alike come from different tables or passages of the source.

The target in one experiment is human TLR9 (Homo sapiens (Human), UniProt Q9NR96). The experiment can be described thus: TLR9 inhibition reporter assay (HEK-Blue cells, SEAP reporter, ODN2006 stimulation).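 Note: compounds tested over 0.05 nM to 50 µM, 22 h incubation, inhibition taken as SEAP signal drop from agonist plus DMSO wells toward a known inhibitor control.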 Background: A reporter such as luciferase makes a cellular process visible.
Another experiment deals with human TLR8 (Homo sapiens (Human), UniProt Q9NR97). Description: TLR8 inhibition reporter assay (HEK-Blue cells, SEAP reporter, R848 stimulation).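 Note: compounds tested from 0.05 nM to 50 µM, 22 h at 37 °C, SEAP measured with HEK-Blue Detection, inhibition relative to agonist plus DMSO versus a known inhibitor.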
A further experiment concerns the target human TLR7 (Homo sapiens (Human), UniProt Q9NYK1). The experiment can be described thus: TLR7 inhibition reporter assay (HEK-Blue cells, SEAP reporter, gardiquimod stimulation). The class given is cell-based.
[1] abbreviates: read-out: TLR9 IC50, HEK-Blue cells overexpressing human TLR9, ODN2006 5 nM.
Setting [2] is: read-out: TLR8 IC50, HEK-Blue cells overexpressing human TLR8, R848 15.9 μM.
Setting [3] is: HEK-Blue cells overexpressing human TLR7, gardiquimod 7.5 μM.

Chain of human TLR9 (Q9NR96 26-1032): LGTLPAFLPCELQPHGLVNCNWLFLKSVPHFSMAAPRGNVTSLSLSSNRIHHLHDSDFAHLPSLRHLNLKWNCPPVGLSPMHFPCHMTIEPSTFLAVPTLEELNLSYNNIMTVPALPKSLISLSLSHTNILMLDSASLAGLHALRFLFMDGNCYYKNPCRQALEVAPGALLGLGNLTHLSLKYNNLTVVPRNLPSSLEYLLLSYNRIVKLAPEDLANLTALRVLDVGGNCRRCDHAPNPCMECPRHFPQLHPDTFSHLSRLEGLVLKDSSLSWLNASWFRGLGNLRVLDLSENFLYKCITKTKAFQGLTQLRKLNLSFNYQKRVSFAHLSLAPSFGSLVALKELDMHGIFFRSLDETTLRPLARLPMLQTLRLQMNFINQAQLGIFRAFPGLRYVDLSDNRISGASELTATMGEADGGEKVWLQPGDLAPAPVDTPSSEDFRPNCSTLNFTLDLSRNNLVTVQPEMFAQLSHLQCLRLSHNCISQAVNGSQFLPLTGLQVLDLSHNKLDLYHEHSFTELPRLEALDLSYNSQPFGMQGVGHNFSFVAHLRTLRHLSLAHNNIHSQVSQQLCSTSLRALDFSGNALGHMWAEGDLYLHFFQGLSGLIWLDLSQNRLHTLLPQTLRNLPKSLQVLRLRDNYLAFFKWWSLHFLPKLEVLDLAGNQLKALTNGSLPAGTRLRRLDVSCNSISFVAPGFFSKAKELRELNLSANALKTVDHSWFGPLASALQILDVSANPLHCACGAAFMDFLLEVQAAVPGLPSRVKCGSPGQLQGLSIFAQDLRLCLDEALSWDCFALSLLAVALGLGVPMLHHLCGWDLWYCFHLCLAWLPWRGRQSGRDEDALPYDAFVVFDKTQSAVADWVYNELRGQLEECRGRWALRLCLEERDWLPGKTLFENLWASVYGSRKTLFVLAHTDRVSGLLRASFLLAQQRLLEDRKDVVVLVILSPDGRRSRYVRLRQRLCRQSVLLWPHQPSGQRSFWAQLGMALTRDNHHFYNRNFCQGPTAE
Chain of human TLR8 (Q9NR97 27-1041): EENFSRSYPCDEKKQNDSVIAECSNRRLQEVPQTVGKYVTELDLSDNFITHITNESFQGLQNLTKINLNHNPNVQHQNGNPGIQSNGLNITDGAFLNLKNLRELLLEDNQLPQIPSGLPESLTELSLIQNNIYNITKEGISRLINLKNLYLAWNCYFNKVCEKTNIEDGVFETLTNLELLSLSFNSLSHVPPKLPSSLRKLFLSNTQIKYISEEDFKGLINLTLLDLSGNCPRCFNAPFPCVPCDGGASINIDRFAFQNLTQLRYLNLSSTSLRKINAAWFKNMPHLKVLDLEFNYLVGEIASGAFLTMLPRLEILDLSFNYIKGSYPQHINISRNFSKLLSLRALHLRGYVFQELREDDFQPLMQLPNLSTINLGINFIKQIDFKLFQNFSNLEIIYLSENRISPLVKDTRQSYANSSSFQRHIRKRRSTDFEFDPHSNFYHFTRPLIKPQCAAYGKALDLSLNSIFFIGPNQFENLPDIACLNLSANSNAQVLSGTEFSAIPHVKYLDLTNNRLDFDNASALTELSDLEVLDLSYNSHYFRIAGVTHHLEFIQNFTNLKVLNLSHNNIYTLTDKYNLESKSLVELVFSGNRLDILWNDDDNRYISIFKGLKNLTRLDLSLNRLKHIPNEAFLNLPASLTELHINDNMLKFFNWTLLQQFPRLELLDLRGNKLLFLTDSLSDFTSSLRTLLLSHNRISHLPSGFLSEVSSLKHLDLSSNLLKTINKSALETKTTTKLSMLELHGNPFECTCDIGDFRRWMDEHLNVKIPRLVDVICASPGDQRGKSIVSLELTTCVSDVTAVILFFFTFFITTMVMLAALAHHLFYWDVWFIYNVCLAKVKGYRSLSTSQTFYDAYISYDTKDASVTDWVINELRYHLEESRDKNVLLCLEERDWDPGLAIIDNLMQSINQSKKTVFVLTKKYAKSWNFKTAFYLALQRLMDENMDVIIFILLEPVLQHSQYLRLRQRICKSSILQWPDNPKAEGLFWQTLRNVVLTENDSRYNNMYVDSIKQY
Chain of human TLR7 (Q9NYK1 27-1049): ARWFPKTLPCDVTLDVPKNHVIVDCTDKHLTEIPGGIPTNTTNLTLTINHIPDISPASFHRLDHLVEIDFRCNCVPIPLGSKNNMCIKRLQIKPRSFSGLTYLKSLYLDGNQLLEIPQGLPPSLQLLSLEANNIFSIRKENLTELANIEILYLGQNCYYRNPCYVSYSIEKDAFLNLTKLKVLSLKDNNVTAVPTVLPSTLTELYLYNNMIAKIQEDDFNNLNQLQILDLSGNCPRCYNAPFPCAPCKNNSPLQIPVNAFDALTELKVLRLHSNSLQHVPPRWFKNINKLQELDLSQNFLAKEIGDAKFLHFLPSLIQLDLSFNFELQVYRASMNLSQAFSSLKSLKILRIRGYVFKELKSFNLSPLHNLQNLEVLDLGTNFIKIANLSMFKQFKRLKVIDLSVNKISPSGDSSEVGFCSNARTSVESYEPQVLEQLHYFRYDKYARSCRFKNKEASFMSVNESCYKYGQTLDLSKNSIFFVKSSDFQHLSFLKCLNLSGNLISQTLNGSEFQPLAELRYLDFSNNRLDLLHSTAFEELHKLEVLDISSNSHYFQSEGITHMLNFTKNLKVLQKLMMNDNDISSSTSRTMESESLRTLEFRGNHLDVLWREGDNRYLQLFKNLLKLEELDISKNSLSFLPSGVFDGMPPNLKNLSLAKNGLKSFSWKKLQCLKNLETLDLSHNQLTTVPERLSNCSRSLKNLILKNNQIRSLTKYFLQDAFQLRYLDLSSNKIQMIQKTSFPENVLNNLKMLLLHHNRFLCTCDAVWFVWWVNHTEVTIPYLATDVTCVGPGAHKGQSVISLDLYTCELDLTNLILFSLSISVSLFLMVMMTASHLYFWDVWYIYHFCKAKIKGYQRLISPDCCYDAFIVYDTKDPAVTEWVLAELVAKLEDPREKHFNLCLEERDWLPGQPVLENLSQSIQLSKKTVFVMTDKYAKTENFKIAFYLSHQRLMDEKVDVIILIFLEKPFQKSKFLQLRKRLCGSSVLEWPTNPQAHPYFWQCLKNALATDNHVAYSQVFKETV

For the compound `CNCC(=O)N1CCC(c2ccc3[nH]c(-c4ccnc(C)c4)c(C(C)C)c3c2)CC1` [Example 510, 1-(4-(3-isopropyl-2-(2-methylpyridin-4-yl)-1H-indol-5-yl)piperidin-1-yl)-2-(methylamino)ethan-1-one], the IC50 at human TLR9 (setting [1]) worked out at 695 nM; at human TLR8 (setting [2]), 8.6 nM; against human TLR7 (setting [3]), 8.8 nM.

For the compound `Cc1cc(-c2[nH]c3cc(F)c(C4CCNCC4)cc3c2C(C)C)cc(C)n1` [Example 78, 2-(2,6-dimethylpyridin-4-yl)-6-fluoro-3-isopropyl-5-(piperidin-4-yl)-1H-indole], the concentration for half-maximal inhibition (IC50) was 145 nM at human TLR9 (setting [1]), 2.7 nM at human TLR8 (setting [2]) and 0.8 nM at human TLR7 (setting [3]).

In the case of `Cc1cc(-c2[nH]c3ccc(C4CCN(C5CCCNC5)CC4)cc3c2C(C)C)ccn1` (stereo not drawn) [Example 703, 5-([1,3′-bipiperidin]-4-yl)-3-isopropyl-2-(2-methylpyridin-4-yl)-1H-indole], the figures for the half-inhibitory concentration (IC50) on human TLR9 (setting [1]), at human TLR8 (setting [2]) and against human TLR7 (setting [3]) were 526 nM, 1.8 nM and 8.8 nM, respectively.

`CCc1c(-c2ccnc(C)c2)[nH]c2ccc(C3CCN(C(=O)C4CNC4)CC3)cc12` [Example 630, azetidin-3-yl (4-(3-ethyl-2-(2-methylpyridin-4-yl)-1H-indol-5-yl)piperidin-1-yl)methanone]: the values for the 50% inhibitory concentration (IC50) at human TLR9 (setting [1]), on human TLR8 (setting [2]) and on human TLR7 (setting [3]) were 333 nM, 40.2 nM and 70.4 nM, respectively.

For the compound `Cc1cc(-c2[nH]c3ccc(C4CCN(CC5(C)COC5)CC4)cc3c2C(C)C)cc(C)n1` [Example 475, 2-(2,6-dimethylpyridin-4-yl)-3-isopropyl-5-(1-((3-methyloxetan-3-yl)methyl)piperidin-4-yl)-1H-indole], the results for the concentration for half-maximal inhibition (IC50) on human TLR9 (setting [1]), on human TLR8 (setting [2]) and at human TLR7 (setting [3]) were 335 nM, 2.2 nM and 4.1 nM, respectively.

As for `Cc1cc(-c2[nH]c3ccc(C4CCN(C(=O)C(C)(C)C#N)CC4)cc3c2C(C)C)ccn1` [Example 615, 3-(4-(3-isopropyl-2-(2-methylpyridin-4-yl)-1H-indol-5-yl)piperidin-1-yl)-2,2-dimethyl-3-oxopropanenitrile], the results for the IC50 at human TLR9 (setting [1]), at human TLR8 (setting [2]) and against human TLR7 (setting [3]) were 12200 nM, 243 nM and 80.9 nM, respectively.

As for `Cc1cc(-c2[nH]c3ccc(C4CCN(C(=O)CN(C)C(C)C)CC4)cc3c2C(C)C)cc(C)n1` [Example 354, 1-(4-(2-(2,6-dimethylpyridin-4-yl)-3-isopropyl-1H-indol-5-yl)piperidin-1-yl)-2-(isopropyl(methyl)amino)ethan-1-one], the IC50 on human TLR9 (setting [1]) was determined as 447 nM; on human TLR8 (setting [2]), 11.2 nM; at human TLR7 (setting [3]) it was 3.5 nM.

As to `Cc1cc(-c2[nH]c3ccc(C4CCN(CC(=O)N(CCO)Cc5ccccc5)CC4)cc3c2C(C)C)cc(C)n1` [Example 293, N-benzyl-2-(4-(2-(2,6-dimethylpyridin-4-yl)-3-isopropyl-1H-indol-5-yl)piperidin-1-yl)-N-(2-hydroxyethyl)acetamide], the values for the half-maximal inhibitory concentration (IC50) on human TLR9 (setting [1]), on human TLR8 (setting [2]) and against human TLR7 (setting [3]) were 711 nM, 72.2 nM and 22.8 nM, respectively.

With `Cc1cc(-c2[nH]c3ccc(C4CCN(CC5COC5)CC4)cc3c2C(C)C)c(F)cn1` [Example 650, 2-(5-fluoro-2-methylpyridin-4-yl)-3-isopropyl-5-(1-(oxetan-3-ylmethyl)piperidin-4-yl)-1H-indole], the IC50 amounted to 3400 nM on human TLR9 (setting [1]), 1.8 nM at human TLR8 (setting [2]) and 4.7 nM against human TLR7 (setting [3]).

Turning to `CNC(=O)C(=O)N1CCC(c2ccc3[nH]c(-c4ccnc(C)c4)c(C(C)C)c3c2)CC1` [Example 879, 2-(4-(3-isopropyl-2-(2-methylpyridin-4-yl)-1H-indol-5-yl)piperidin-1-yl)-N-methyl-2-oxoacetamide], the IC50 at human TLR9 (read-out: TLR9 IC50, HEK-Blue cells, ODN2006 5 nM) was more than 50000 nM; at human TLR8 (read-out: TLR8 IC50, HEK-Blue cells, R848 15.9 μM) it was 168 nM; at human TLR7 (HEK-Blue cells, gardiquimod 7.5 μM), 37 nM.

Regarding `Cc1cc(-c2[nH]c3ccc(C4CCN(C(=O)C5CCOC5)CC4)cc3c2C(C)C)cc(C)n1` (stereo not drawn) [Example 199, (4-(2-(2,6-dimethylpyridin-4-yl)-3-isopropyl-1H-indol-5-yl)piperidin-1-yl)(tetrahydrofuran-3-yl)methanone], the 50% inhibitory concentration (IC50) was 46600 nM at human TLR9 (setting [1]), 86.1 nM on human TLR8 (setting [2]) and 3.6 nM against human TLR7 (setting [3]).

On to `CC(C)c1c(-c2ccncc2F)[nH]c2ccc(C3CCNCC3)cc12` [Example 7, 2-(3-fluoropyridin-4-yl)-3-isopropyl-5-(piperidin-4-yl)-1H-indole], for which the 50% inhibitory concentration (IC50) at human TLR9 (setting [1]) amounted to 3540 nM; on human TLR8 (setting [2]) it was 195 nM; at human TLR7 (setting [3]) it was 590 nM.

Take `CNC(=O)CN1CCC(c2ccc3[nH]c(-c4cc(C5CC5)ncc4F)c(C(C)C)c3c2)CC1` [Example 514, 2-(4-(2-(2-cyclopropyl-5-fluoropyridin-4-yl)-3-isopropyl-1H-indol-5-yl)piperidin-1-yl)-N-methylacetamide]: the IC50 at human TLR9 (setting [1]) was found to be 10900 nM; at human TLR8 (setting [2]), 269 nM; at human TLR7 (setting [3]) it was 60.3 nM.

As for `Cc1cc(-c2[nH]c3ccc(C4CCN(Cc5ccn(C)n5)CC4)cc3c2C(C)C)c(C)cn1` [Example 689, 2-(2,5-dimethylpyridin-4-yl)-3-isopropyl-5-(1-((1-methyl-1H-pyrazol-3-yl)methyl)piperidin-4-yl)-1H-indole], the IC50 stood at 1440 nM on human TLR9 (setting [1]), 0.8 nM at human TLR8 (setting [2]) and 23.2 nM against human TLR7 (setting [3]).

With `Cc1cc(-c2[nH]c3ccc(C4CCN(S(=O)(=O)c5ccc(Cl)cc5)CC4)cc3c2C(C)C)ccn1` [Example 542, 5-(1-((4-chlorophenyl)sulfonyl)piperidin-4-yl)-3-isopropyl-2-(2-methylpyridin-4-yl)-1H-indole], the IC50 on human TLR9 (setting [1]) is more than 50000 nM; on human TLR8 (setting [2]), 1480 nM; against human TLR7 (setting [3]), 1160 nM.

Regarding `Cc1cc(-c2[nH]c3ccc(C4CCN(C(=O)CCn5ccnc5C)CC4)cc3c2C(C)C)cc(C)n1` [Example 124, 1-(4-(2-(2,6-dimethylpyridin-4-yl)-3-isopropyl-1H-indol-5-yl)piperidin-1-yl)-3-(2-methyl-1H-imidazol-1-yl)propan-1-one], the concentration for half-maximal inhibition (IC50) stood at 394 nM on human TLR9 (setting [1]), 10.1 nM at human TLR8 (setting [2]) and 1.9 nM against human TLR7 (setting [3]).

On to `CNCCN1CCC(c2ccc3[nH]c(-c4cc(C)nc(C)c4)c(C(C)C)c3c2)CC1` [Example 428, 2-(4-(2-(2,6-dimethylpyridin-4-yl)-3-isopropyl-1H-indol-5-yl)piperidin-1-yl)-N-methylethan-1-amine], for which the IC50 on human TLR9 (TLR9 IC50, HEK-Blue cells overexpressing human TLR9, ODN2006 5 nM) was determined as 120 nM; against human TLR8 (TLR8 IC50, HEK-Blue cells overexpressing human TLR8, R848 15.9 μM), 1.9 nM; against human TLR7 (setting [3]) it was 1.9 nM.

As to `Cc1cc(-c2[nH]c3ccc(C4CCN(C(=O)CN5CCCC(F)C5)CC4)cc3c2C(C)C)cc(C)n1` (stereo not drawn) [Example 363, 1-(4-(2-(2,6-dimethylpyridin-4-yl)-3-isopropyl-1H-indol-5-yl)piperidin-1-yl)-2-(3-fluoropiperidin-1-yl)ethan-1-one], the IC50 on human TLR9 (setting [1]) amounted to 1800 nM; on human TLR8 (setting [2]) it was 34.2 nM; at human TLR7 (setting [3]), 8.3 nM.

Turning to `Cc1cc(-c2[nH]c3ccc(C4CCN(CCCO)CC4)cc3c2C(C)C)cc(C)n1` [Example 311, 3-(4-(2-(2,6-dimethylpyridin-4-yl)-3-isopropyl-1H-indol-5-yl)piperidin-1-yl)propan-1-ol], the 50% inhibitory concentration (IC50) at human TLR9 (setting [1]) was 270 nM; on human TLR8 (setting [2]), 2.5 nM; on human TLR7 (setting [3]) it was 1.8 nM.

Consider `COCCOCC(=O)N1CCC(c2ccc3[nH]c(-c4cc(C)nc(C)c4)c(C(C)C)c3c2)CC1` [Example 114, 1-(4-(2-(2,6-dimethylpyridin-4-yl)-3-isopropyl-1H-indol-5-yl)piperidin-1-yl)-2-(2-methoxyethoxy)ethan-1-one], for which the IC50 at human TLR9 (setting [1]) is 47200 nM; at human TLR8 (setting [2]), 82.5 nM; against human TLR7 (setting [3]), 3.1 nM.

Regarding `Cc1cc(-c2[nH]c3ccc(C4CCN(C(=O)CN5CCC(F)(F)CC5)CC4)cc3c2C(C)C)cc(C)n1` [Example 362, 2-(4,4-difluoropiperidin-1-yl)-1-(4-(2-(2,6-dimethylpyridin-4-yl)-3-isopropyl-1H-indol-5-yl)piperidin-1-yl)ethan-1-one], the IC50 on human TLR9 (setting [1]) stood at 16100 nM; at human TLR8 (setting [2]) it was 55.1 nM; against human TLR7 (setting [3]) it was 33.6 nM.

`Cc1cc(-c2[nH]c3ccc(C4CCN(C5CCOC(C)(C)C5)CC4)cc3c2C(C)C)cc(C)n1` (stereo not drawn) [Example 453, 2-(2,6-dimethylpyridin-4-yl)-5-(1-(2,2-dimethyltetrahydro-2H-pyran-4-yl)piperidin-4-yl)-3-isopropyl-1H-indole]: the half-maximal inhibitory concentration (IC50) at human TLR9 (setting [1]) was found to be 255 nM; at human TLR8 (setting [2]) it was 6.5 nM; at human TLR7 (setting [3]) it was 8.5 nM.

Consider `Cc1cc(-c2[nH]c3ccc(C4CCN(CC(=O)N5CCCC5)CC4)cc3c2C(C)C)cc(C)n1` [Example 242, 2-(4-(2-(2,6-dimethylpyridin-4-yl)-3-isopropyl-1H-indol-5-yl)piperidin-1-yl)-1-(pyrrolidin-1-yl)ethan-1-one], for which the results for the IC50 at human TLR9 (setting [1]), on human TLR8 (setting [2]) and against human TLR7 (setting [3]) were 1020 nM, 24.7 nM and 5.2 nM, respectively.

With `Cc1cc(-c2[nH]c3ccc(C4CCN(C(=O)C5CCN(Cc6ccccc6)CC5)CC4)cc3c2C(C)C)ccn1` [Example 567, (1-benzylpiperidin-4-yl)(4-(3-isopropyl-2-(2-methylpyridin-4-yl)-1H-indol-5-yl)piperidin-1-yl)methanone], the concentration for half-maximal inhibition (IC50) at human TLR9 (setting [1]) came to 876 nM; at human TLR8 (setting [2]), 22.9 nM; against human TLR7 (setting [3]), 26.7 nM.

As to `Cc1cc(-c2[nH]c3ccc(C4CCN(C(=O)CN(C(C)C)C(C)C)CC4)cc3c2C(C)C)cc(C)n1` [Example 153, 2-(diisopropylamino)-1-(4-(2-(2,6-dimethylpyridin-4-yl)-3-isopropyl-1H-indol-5-yl)piperidin-1-yl)ethan-1-one], the IC50 at human TLR9 (setting [1]) worked out at 675 nM; on human TLR8 (setting [2]), 26 nM; on human TLR7 (setting [3]), 9.9 nM.

One may read the IC50 as the point on the concentration scale where inhibition reaches its midpoint.
